Earlier results, collected in patent US20140328795A1, “VIRUCIDAL SMALL MOLECULE AND USES THEREOF” (The Texas A&M University System, priority 2012, published 2014).

Test system: HIV
Conditions: VOICE trial among African women; cited from earlier work

C[C@H](Cn1cnc2c(N)ncnc21)OCP(=O)(O)O [tenofovir]
protection against HIV: failed to provide protection against HIV
